On the set-up of data set [1]: AUC increase factor in steady state vs single dose: unit not given beside the values. The conditions noted are these: cited from earlier work.
Data set [2] in a line: pharmacokinetic study in Beagle dogs, oral capsules. It counts as in vivo. The conditions noted are these: 7 Beagle dogs, oral capsule 62.5 mg base equivalent. On the procedure: This appears i.a. from a pharmacokinetic study in animals involving 7 Beagle dogs weighing about 10 kg, aged about 5 years, upon oral administration of capsules prepared by mixing active terbinafine salt substance [hydrochloride or L-(−)-hydrogen malate; 62.5 mg base equivalent per capsule] with lactose in a ratio of 1:1 w/w and filling into appropriate hard gelatine capsules (particle size distribution similar for both salts).

A further data set addresses CYP2D6 (Homo sapiens, UniProt P10635). The conditions noted are these: cited from earlier work.
Data set [3] can be described thus: solubility in water and organic solvents. The data set is classed as physicochemical. The conditions noted are these: for solubility: 25 °C. The text has this: They thus form crystals more readily than the hydrochloride or the free base. […] Polymorphs have different dissolution rates, milling behaviour and stability, e.g. in galenical forms where the pharmaceutically active compound is in solid form, such as tablets or suspensions, and they influence bioavailability. The surprising presence of polymorphism is therefore advantageous in terms of improved processability, such as with polymorph particularly stable thermodynamically, in formulations with compound in solid form, e.g. tablets or suspensions, or with polymorph having a particularly high dissolution rate or solubility, in formulations with dissolved compound, e.g. nail lacquers. The compounds of the invention are therefore better processable for e.g. large scale tablet formulation; they also have favourable penetration/permeation properties and can thus readily be formulated into topical forms, such as nail lacquers. […] Further, they are non-hygroscopic, thus providing stable formulations while minimizing the risk of intrinsic chemical breakdown.

Data set [4] can be described thus: in vitro nail penetration/permeation assay (modified Franz cell). The data set is classed as in vitro ADME, human. The conditions noted are these: 72 hours, 1% solution. The method, then:
Human cadaveric toe nails are used in a Franz cell (FIG. 1) modified to accept cadaveric human toenails by having a pair of flexible rings made of a silicone elastomer (PDMS) having good sealant properties to adequately mount hard nails, using liquid scintillation counting (LSC) (picogram limit of detection) to measure the increase in radioactivity in the acceptor compartment. Each measurement is effected in triplicate. 90 randomly selected nails are exposed for 72 hours to a solution of 100 μl of ^14C-labelled terbinafine hydrochloride or terbinafine L-(−)-hydrogen malate (form A) solution [25 μBq/ml; 1% active product; 5% 1,2-propylene glycol; 2% Cetomacrogol-1000® (polyoxyethylene-glycol-1000-monoacetylether); 25% ethanol 94%; 67% distilled water] (w/w). Each area of the nail exposed to the formulation has a 9 mm diameter (about 64 mm^2). Exposure is effected under occlusive (chamber closed to air) and non-occlusive (chamber open to air) conditions.
The radiolabelled product is detectable in the buffer-filled receptor chamber from about 8 hours of incubation. Its concentration in the receptor chamber as measured by LSC increases with incubation time and concentration of applied formulation. A total of 24 penetration chambers are used in parallel. Each formulation is measured in triplicate.

Where [5] appears, read: human subjects, single 250 mg terbinafine dose.
Where [6] appears, read: steady state after several days dosing.
Where [7] appears, read: Beagle, dog, plasma, po, 62.5 mg.
Setting [8] is: ethanol, organic solvent or mixture, read-out: solubility in ethanol.

The structures appear in SMILES notation. Structures can show the parent of a compound that is named as a salt. Where two headings read alike, the source gives them in different places.

The AUC is the area under the concentration-time curve, a measure of exposure. In general, Cmax refers to the peak of the concentration-time curve.

Sequence of CYP2D6 (P10635 whole entry): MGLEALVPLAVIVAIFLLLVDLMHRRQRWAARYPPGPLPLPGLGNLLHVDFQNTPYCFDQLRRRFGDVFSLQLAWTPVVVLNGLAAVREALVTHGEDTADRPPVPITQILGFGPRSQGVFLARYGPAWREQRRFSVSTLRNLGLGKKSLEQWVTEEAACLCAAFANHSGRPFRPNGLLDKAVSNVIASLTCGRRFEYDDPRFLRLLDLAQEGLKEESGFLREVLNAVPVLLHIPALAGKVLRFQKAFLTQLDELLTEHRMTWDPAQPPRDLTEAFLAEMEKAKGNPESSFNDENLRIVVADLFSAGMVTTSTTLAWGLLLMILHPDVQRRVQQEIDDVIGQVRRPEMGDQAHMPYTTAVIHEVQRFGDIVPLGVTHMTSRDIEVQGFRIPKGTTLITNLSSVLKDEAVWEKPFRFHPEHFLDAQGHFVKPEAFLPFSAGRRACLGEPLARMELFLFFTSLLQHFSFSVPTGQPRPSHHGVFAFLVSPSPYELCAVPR

`CN(C/C=C/C#CC(C)(C)C)Cc1cccc2ccccc12` [terbinafine hydrochloride]: the “increase in AUC with a fat-rich meal” value in data set [1] (administered with a fat-rich meal) is given as 42%. Moreover, in data set [1] (setting [5]), the “Peak drug plasma concentration (Cmax)” value was “about 1.3 μg/ml” and the “area under the curve over 24 hours (AUC)” value is given as “about 4.76 μg·hour/ml”. The effective half-life result in data set [1] (human, in vivo) is listed as “about 36 hours”. In addition, the reduction of clearance result in data set [1] (patients with renal impairment (creatinine clearance ≤50 ml/min) or hepatic cirrhosis) is “approximately 50%”. In data set [1] (setting [6]), the “AUC increase factor in steady state vs single dose” value is 2.5 and the “Cmax higher in steady state vs single dose” value is 25%. Also, in data set [2] (hydrochloride), the “coefficient of variation (CV) of AUC, inter-animal variability” value came out at 39%; the “mean AUC” value was found to be 348 ng·h/mL; the “mean Cmax” value stood at 146 ng/mL.
Regarding `CN(C/C=C/C#CC(C)(C)C)Cc1cccc2ccccc12` [Terbinafine, (E)-N-methyl-6,6-dimethyl-N-(1-naphthylmethyl)hept-2-en-4-inyl-1-amine], the “inhibition of CYP2D6” value at CYP2D6 is “potent inhibitor”.
In data set [3] (25°), `CN(C/C=C/C#CC(C)(C)C)Cc1cccc2ccccc12` [Example 4, Terbinafine D-(+)-hydrogen malate] gave a solubility in water of roughly 7 mg/mL.
Still for that read-out and setting: the value for `CN(C/C=C/C#CC(C)(C)C)Cc1cccc2ccccc12` [Example 2, Terbinafine L-(−)-hydrogen malate (polymorph form B)] was 15 mg/mL.
Regarding `CN(C/C=C/C#CC(C)(C)C)Cc1cccc2ccccc12` [L-(−)-hydrogen malate, terbinafine L-(−)-hydrogen malate], in data set [3] (25°), the “solubility in ethyl acetate” value is greater than 30 mg/mL and the solubility in water is 12 to 15 mg/mL. In addition, in data set [2], the “coefficient of variation (CV) of AUC, inter-animal variability” value turned out to be 30%. Also, in data set [2] (setting [7]), the AUC turned out to be 392 ng·h/mL and the Cmax stood at 134 ng/mL.
As for `CN(C/C=C/C#CC(C)(C)C)Cc1cccc2ccccc12` (racemic) [Example 5, Terbinafine DL-(±)-hydrogen malate], the solubility in data set [3] (setting [8]) is greater than 50 mg/mL; in data set [3] (ethyl acetate, organic solvent or mixture, read-out: solubility in ethyl acetate), roughly 17 mg/mL; in data set [3] (water, water, read-out: solubility in water) it was roughly 7 mg/mL.
`CN(C/C=C/C#CC(C)(C)C)Cc1cccc2ccccc12` [Example 1, Terbinafine L-(−)-hydrogen malate (polymorph form A)]: in data set [3] (25°), the “solubility in ethyl acetate” value was greater than 30 mg/mL. Besides, the solubility in water in data set [3] (25°) is roughly 12 mg/mL. In data set [3] (25°, listed as Example 3), this compound gave a solubility in ethanol greater than 50 mg/mL. The solubility is greater than 30 mg/mL in data set [3] (aqueous with cosolvent or surfactant or cyclodextrin, solubility, read-out: solubility in ethane/water 2:8 v/v) and greater than 30 mg/mL in data set [3] (setting [8]). In addition, the “amount recovered in receptor chamber (permeation)” value in data set [4] (non-occlusive conditions) was roughly 41 ng; in data set [4] (occlusive conditions) it was “about 63 ng”.
